From ChEMBL document CHEMBL3991601, “The target landscape of clinical kinase drugs” (Science, 2017) come the findings set out here.

Active and inactive are the calls of the source. Cut-off read from the data, not from the text of the source, for most assays here: actives have a measured Kd and inactives only a lower limit.

Assay [1] has as its target T1, Mitogen-activated protein kinase 15 (Homo sapiens, UniProt Q8TD08).
T1 sequence (Q8TD08 whole entry): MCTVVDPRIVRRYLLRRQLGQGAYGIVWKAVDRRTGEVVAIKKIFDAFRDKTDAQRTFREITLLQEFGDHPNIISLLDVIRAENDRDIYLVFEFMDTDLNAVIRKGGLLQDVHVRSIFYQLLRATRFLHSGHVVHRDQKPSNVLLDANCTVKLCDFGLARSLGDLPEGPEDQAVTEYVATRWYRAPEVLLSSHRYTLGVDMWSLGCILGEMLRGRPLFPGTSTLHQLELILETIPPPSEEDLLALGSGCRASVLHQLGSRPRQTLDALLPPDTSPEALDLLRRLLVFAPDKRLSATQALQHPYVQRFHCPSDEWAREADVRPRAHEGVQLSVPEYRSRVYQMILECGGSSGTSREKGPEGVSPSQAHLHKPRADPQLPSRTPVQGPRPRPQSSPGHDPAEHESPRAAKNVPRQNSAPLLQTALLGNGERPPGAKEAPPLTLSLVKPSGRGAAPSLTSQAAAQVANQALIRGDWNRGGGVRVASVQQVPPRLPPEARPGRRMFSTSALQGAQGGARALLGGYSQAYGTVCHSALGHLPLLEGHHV

For assay [2], the target named is Casein kinase II subunit alpha' (Homo sapiens, UniProt P19784).
Chain of Casein kinase II subunit alpha' (P19784 whole entry): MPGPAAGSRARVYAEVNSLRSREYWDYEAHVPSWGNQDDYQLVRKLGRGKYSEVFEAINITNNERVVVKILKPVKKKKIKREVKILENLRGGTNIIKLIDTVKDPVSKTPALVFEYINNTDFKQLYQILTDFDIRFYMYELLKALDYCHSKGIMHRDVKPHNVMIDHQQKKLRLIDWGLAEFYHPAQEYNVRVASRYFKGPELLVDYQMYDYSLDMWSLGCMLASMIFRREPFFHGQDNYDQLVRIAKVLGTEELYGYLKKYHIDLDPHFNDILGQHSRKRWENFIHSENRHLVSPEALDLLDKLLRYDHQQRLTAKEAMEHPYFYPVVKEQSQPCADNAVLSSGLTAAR
The next assay deals with Ephrin type-A receptor 4 (Homo sapiens, UniProt P54764).
Chain of Ephrin type-A receptor 4 (P54764 whole entry): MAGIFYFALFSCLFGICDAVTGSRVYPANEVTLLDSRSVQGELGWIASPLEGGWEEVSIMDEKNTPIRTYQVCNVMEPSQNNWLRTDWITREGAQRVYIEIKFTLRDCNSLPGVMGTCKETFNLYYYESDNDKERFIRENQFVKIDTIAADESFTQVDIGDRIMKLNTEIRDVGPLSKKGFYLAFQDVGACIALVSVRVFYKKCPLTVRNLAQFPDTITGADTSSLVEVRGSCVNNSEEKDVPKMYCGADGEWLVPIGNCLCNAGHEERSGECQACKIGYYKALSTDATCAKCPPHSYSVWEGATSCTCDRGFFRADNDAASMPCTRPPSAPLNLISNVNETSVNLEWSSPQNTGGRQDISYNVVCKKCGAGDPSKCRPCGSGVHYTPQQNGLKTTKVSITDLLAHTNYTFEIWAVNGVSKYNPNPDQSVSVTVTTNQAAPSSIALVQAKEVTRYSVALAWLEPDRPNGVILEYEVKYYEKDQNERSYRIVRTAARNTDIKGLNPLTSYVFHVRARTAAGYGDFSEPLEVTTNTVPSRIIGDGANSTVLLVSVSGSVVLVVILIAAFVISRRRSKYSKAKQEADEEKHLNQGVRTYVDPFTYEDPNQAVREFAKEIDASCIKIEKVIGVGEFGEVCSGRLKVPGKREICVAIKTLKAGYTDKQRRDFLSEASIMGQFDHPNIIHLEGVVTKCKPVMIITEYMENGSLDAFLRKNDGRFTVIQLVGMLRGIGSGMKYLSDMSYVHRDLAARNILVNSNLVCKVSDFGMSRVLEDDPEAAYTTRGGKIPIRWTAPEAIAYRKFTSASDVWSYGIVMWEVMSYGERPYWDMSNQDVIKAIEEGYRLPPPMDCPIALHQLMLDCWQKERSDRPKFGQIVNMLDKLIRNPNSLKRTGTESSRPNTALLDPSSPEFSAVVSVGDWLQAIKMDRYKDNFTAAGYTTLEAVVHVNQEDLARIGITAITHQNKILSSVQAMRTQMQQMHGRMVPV
For assay [3], the target named is Atypical kinase COQ8A, mitochondrial (Homo sapiens, UniProt Q8NI60).
Chain of Atypical kinase COQ8A, mitochondrial (Q8NI60 whole entry): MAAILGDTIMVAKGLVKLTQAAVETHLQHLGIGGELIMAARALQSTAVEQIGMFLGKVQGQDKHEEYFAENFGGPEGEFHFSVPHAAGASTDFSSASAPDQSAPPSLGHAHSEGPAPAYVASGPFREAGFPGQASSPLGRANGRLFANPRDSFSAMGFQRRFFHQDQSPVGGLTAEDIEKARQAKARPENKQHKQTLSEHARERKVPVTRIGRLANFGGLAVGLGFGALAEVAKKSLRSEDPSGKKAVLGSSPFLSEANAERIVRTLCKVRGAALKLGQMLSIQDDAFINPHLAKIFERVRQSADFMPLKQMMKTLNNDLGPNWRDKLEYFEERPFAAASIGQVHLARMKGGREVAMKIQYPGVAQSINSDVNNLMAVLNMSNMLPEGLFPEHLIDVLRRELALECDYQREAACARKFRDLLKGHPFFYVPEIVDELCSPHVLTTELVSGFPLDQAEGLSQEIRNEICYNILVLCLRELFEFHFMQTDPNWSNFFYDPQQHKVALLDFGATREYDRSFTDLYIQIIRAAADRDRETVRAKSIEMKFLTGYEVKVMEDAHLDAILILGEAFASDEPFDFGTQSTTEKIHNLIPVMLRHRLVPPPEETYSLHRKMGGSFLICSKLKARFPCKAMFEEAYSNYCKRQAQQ
For assay [4], the target named is T2, Electron transfer flavoprotein subunit beta (Homo sapiens, UniProt P38117).
T2 sequence (P38117 whole entry): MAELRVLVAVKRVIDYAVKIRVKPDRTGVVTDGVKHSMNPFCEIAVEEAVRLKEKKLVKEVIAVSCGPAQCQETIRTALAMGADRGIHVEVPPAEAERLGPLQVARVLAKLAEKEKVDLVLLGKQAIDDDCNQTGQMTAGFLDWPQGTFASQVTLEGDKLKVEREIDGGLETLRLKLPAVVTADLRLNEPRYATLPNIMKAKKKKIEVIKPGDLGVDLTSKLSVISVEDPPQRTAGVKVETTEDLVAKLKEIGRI

Assay [5] has as its target Mitogen-activated protein kinase kinase kinase kinase 5 (Homo sapiens, UniProt Q9Y4K4).
Assay [6] concerns the target Casein kinase I isoform epsilon (Homo sapiens, UniProt P49674).
In assay [7] the target is T3, Bone morphogenetic protein receptor type-2 (Homo sapiens, UniProt Q13873).
T3 sequence (Q13873 whole entry): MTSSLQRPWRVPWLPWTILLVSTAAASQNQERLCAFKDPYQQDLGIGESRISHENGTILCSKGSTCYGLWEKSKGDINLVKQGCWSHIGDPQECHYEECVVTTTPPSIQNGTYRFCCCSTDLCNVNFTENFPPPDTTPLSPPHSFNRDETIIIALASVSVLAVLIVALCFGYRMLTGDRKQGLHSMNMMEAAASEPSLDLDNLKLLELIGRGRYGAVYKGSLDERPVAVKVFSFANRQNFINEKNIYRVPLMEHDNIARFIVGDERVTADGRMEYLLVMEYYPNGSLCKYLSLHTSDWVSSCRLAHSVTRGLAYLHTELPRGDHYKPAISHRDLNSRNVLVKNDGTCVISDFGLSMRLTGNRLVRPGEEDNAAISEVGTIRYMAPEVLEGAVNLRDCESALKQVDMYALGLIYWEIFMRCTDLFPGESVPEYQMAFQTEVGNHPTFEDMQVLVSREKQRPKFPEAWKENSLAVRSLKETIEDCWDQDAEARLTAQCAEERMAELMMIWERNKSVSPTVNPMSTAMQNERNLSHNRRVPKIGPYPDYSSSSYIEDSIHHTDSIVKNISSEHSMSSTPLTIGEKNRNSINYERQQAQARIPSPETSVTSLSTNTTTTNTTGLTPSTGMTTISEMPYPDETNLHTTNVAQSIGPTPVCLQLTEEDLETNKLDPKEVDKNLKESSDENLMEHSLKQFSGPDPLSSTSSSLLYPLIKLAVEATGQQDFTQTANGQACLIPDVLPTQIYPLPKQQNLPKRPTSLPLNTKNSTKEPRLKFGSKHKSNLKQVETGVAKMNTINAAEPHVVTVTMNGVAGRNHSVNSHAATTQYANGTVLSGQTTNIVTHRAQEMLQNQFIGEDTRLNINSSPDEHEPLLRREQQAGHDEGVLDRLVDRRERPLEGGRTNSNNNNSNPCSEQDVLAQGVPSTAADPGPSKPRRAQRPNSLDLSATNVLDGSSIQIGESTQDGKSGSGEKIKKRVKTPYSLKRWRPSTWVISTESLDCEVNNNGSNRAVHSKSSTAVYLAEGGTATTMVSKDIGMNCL

Assay [8] has as its target T4, Peroxisomal acyl-coenzyme A oxidase 1 (Homo sapiens, UniProt Q15067).
T4 sequence (Q15067 whole entry): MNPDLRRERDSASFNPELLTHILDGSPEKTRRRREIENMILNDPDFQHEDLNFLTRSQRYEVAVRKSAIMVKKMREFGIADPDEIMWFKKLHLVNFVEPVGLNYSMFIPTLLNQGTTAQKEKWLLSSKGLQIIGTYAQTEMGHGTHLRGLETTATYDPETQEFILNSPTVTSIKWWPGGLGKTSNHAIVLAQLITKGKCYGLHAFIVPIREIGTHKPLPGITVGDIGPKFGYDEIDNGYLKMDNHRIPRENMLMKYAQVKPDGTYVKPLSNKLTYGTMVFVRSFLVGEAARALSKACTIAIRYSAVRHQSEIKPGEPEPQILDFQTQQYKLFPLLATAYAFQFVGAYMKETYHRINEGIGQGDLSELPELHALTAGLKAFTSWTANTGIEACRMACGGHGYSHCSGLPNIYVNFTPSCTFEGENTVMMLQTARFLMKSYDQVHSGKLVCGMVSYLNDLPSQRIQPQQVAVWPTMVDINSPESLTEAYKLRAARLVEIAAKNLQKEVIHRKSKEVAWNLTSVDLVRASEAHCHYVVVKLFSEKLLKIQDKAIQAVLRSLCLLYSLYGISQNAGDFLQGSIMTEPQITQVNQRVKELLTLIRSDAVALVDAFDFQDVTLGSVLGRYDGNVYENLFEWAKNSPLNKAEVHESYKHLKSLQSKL
Note: in the data inactive means no Kd found up to 30 µM.

Chain of Mitogen-activated protein kinase kinase kinase kinase 5 (Q9Y4K4 whole entry, canonical isoform): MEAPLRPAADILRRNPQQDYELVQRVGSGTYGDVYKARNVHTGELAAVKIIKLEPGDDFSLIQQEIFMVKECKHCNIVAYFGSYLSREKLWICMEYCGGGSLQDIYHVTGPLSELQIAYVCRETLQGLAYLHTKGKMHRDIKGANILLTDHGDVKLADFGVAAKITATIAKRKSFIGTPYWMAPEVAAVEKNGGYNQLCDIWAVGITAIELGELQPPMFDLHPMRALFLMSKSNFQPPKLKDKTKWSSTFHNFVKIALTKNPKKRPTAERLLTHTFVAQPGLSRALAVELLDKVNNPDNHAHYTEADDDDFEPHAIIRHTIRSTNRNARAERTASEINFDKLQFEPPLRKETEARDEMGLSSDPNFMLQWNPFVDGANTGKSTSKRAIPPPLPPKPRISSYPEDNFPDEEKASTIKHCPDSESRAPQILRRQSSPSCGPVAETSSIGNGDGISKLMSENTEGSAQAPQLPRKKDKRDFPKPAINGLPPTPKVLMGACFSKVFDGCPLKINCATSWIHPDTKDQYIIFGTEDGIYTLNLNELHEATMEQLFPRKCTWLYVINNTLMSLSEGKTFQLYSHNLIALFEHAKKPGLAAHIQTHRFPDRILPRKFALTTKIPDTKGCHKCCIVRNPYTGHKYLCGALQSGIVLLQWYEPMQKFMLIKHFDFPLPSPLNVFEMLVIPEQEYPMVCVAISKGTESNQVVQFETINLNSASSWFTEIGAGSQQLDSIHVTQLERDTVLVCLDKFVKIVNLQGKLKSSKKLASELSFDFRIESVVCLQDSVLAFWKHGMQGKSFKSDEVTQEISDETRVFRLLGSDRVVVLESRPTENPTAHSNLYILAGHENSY
Chain of Casein kinase I isoform epsilon (P49674 whole entry, canonical isoform): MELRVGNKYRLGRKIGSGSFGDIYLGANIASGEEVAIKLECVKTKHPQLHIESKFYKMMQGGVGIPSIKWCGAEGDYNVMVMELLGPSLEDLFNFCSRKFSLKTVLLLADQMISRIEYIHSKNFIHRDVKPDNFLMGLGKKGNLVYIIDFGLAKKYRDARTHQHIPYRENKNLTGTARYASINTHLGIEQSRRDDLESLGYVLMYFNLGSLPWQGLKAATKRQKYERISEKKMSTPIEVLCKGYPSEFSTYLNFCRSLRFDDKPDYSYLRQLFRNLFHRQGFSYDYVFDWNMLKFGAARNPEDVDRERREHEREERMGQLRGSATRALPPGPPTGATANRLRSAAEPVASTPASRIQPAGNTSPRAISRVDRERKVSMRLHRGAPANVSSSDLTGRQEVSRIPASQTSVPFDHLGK

Consider `CCc1nc(C(N)=O)c(Nc2ccc(N3CCC(N4CCN(C)CC4)CC3)c(OC)c2)nc1NC1CCOCC1` [GILTERITINIB], for which the Kd (commonly the free concentration of one partner at which half of the binding sites on the other are occupied at equilibrium, for simple one-to-one binding) in assay [1] is 0.263 µM; in [2] it was 0.96 µM (active); at Ephrin type-A receptor 4, > 30 µM (inactive); in [3], > 30 µM (inactive); in assay [4] it was > 30 µM (inactive); in [5], 3.12 µM (active). The Kd in assay [6] and in assay [7] was > 30 µM (inactive) throughout.
With `Cc1cc(Nc2nc(N[C@@H](C)c3ncc(F)cn3)ncc2Cl)n[nH]1` [AZD-1480], the Kd was > 30 µM (inactive) in assay [1]; > 30 µM (inactive) in assay [8]; 3.96 µM (active) in assay [2]; > 30 µM (inactive) at Ephrin type-A receptor 4; > 30 µM (inactive) in assay [3]; > 30 µM (inactive) in assay [4]. Besides, the Kd in [5], in assay [6] and in [7] was > 30 µM (inactive) each time.
As to `Cc1ccc(C(=O)Nc2ccc(Oc3cc4cnn(C)c4cc3-c3cn[nH]c3)c(F)c2)c(=O)n1-c1ccc(F)cc1` [MERESTINIB], the Kd (in assay [1]; in assay [8]; in assay [2]; at Ephrin type-A receptor 4; in [3]; in [4]) was > 30 µM (inactive) in each case. Besides, the Kd in assay [5], in assay [6] and in assay [7] was > 30 µM (inactive) each time.
Take `COc1cc(F)c(F)c(Nc2ccc(I)cc2F)c1NS(=O)(=O)C1(C[C@H](O)CO)CC1` [REFAMETINIB]: the Kd (in [1]; in assay [2]; on Ephrin type-A receptor 4; in assay [3]; in assay [4]; in assay [5]) was > 30 µM (inactive) each time. Moreover, the Kd in assay [6] and in assay [7] was > 30 µM (inactive) in each case.
Take `CCOc1ccn(-c2ccc(F)cc2)c(=O)c1C(=O)Nc1ccc(Oc2ccnc(N)c2Cl)c(F)c1` [BMS-777607]: the Kd (in assay [1]; in assay [2]; on Ephrin type-A receptor 4; in assay [3]; in assay [4]; in [5]) was > 30 µM (inactive) in each case. In assay [6], the Kd is > 30 µM (inactive).
As to `O[C@H]1CC[C@H](Nc2ncc3nc(Nc4c(F)cc(F)cc4F)n([C@H]4CCOC4)c3n2)CC1` [TANZISERTIB], the Kd (in assay [1]; in assay [8]; in [2]; on Ephrin type-A receptor 4; in assay [3]; in assay [5]) was > 30 µM (inactive) in each case. Also, the Kd in assay [6] and in assay [7] was > 30 µM (inactive) each time.
Consider `FC(F)(F)c1ccc(CNc2ccc(Cc3c[nH]c4ncc(Cl)cc34)cn2)cn1` [PEXIDARTINIB], for which the Kd (in assay [1]; in assay [8]; in [2]; on Ephrin type-A receptor 4; in [3]; in assay [5]) was > 30 µM (inactive) in each case. Further, the Kd in assay [6] and in assay [7] was > 30 µM (inactive) each time.
In the case of `Cc1cc(-c2cc(OC(=O)c3ccccc3)ccc2Cl)cc2nnc(Nc3ccc(OCCN4CCCC4)cc3)nc12` [TG100-801], the Kd in assay [1] was > 30 µM (inactive); in assay [8], > 30 µM (inactive); in assay [2] it was > 30 µM (inactive); at Ephrin type-A receptor 4 it was 1.93 µM; in assay [3], > 30 µM (inactive); in assay [5], > 30 µM (inactive). For the same molecule, the Kd in [6] and in [7] was > 30 µM (inactive) in each case.
For the molecule `O=C(Nc1ccc(OC(F)(F)F)cc1)c1sccc1NCc1ccnc2ccccc12` [OSI-930], the Kd (in [1]; in assay [8]; in assay [2]; on Ephrin type-A receptor 4; in assay [3]; in [5]) was > 30 µM (inactive) each time. Further, the Kd in assay [6] and in assay [7] was > 30 µM (inactive) in each case.
On to `O=C(O)c1ccc2c(c1)nc(Nc1cccc(Cl)c1)c1ccncc12` [SILMITASERTIB], for which the Kd (in [1]; at Ephrin type-A receptor 4; in assay [3]; in assay [4]; in assay [5]; in [6]) was > 30 µM (inactive) in each case. Further, in assay [7], the Kd was 1.06 µM (active).
For `O=c1[nH]c([C@@H]2CCCN2)nc2c1oc1ccc(Cl)cc12`, the Kd was > 30 µM (inactive) in assay [1]; > 30 µM (inactive) in [8]; 0.022 µM (active) in [2]; > 30 µM (inactive) on Ephrin type-A receptor 4; > 30 µM (inactive) in assay [3]; > 30 µM (inactive) in assay [5]. Also, the Kd in [6] and in assay [7] was > 30 µM (inactive) in each case.
Turning to `CC(C)(O)CC(=O)NCCn1ccc2ncnc(Nc3ccc(Oc4cccc(C(F)(F)F)c4)c(Cl)c3)c21` [TAK-285], the Kd (in assay [1]; in assay [8]; in assay [2]; at Ephrin type-A receptor 4; in assay [3]; in assay [5]) was > 30 µM (inactive) throughout. In addition, the Kd in assay [6] and in assay [7] was > 30 µM (inactive) in each case.
As to `C[C@@H]1COC(Nc2ccc3ncnc(Nc4ccc(OCc5nccs5)c(Cl)c4)c3c2)=N1` [VARLITINIB], the Kd (in assay [1]; in assay [8]; in assay [2]; on Ephrin type-A receptor 4; in assay [3]; in assay [5]) was > 30 µM (inactive) in each case. Also, the Kd in assay [6] and in assay [7] was > 30 µM (inactive) in each case.
